Experimental data: PubChem BioAssay AID248 (DTP/NCI, 2004)
Values joined by “and” are separate entries in the source; they are usually repeats but may differ in a detail not shown here. Identical values can stand only once. Toxic doses and inconclusive results are not listed. Cut-off read from the data, not from the text of the source: active = T/C of 150% or more; inactive = T/C below 125%.

Test system: L1210 leukemia ip in BDF1 mice, survival T/C
Assay: NCI In Vivo Anticancer Drug Screen. Data for tumor model L1210 Leukemia (intraperitoneal) in B6D2F1 (BDF1) mice
Conditions: endpoint: mean survival time, higher = longer survival
Summary of the method: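 Ratio derived from survival: compound-dosed mice over vehicle-dosed mice, all bearing a transplantable tumor.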

[1] = dose: 50.0 mg/kg/injection, schedule: Q01DX009 (ip), vehicle: saline
[2] = dose: 100.0 mg/kg/injection, schedule: Q01DX009 (ip), vehicle: saline
[3] = dose: 100.0 mg/kg/injection, schedule: Q01DX001 (ip), vehicle: saline
[4] = dose: 200.0 mg/kg/injection, schedule: Q01DX001 (ip), vehicle: saline
[5] = dose: 400.0 mg/kg/injection, schedule: Q01DX001 (ip), vehicle: saline
[6] = dose: 100.0 mg/kg/injection, schedule: Q04DX003 (ip), vehicle: saline
[7] = dose: 200.0 mg/kg/injection, schedule: Q04DX003 (ip), vehicle: saline
[8] = dose: 50.0 mg/kg/injection, schedule: Q01DX009 (ip), vehicle: saline with Tween-80
[9] = dose: 100.0 mg/kg/injection, schedule: Q04DX003 (ip), vehicle: Klucel (hydroxypropylcellulose) (HPC)
[10] = dose: 200.0 mg/kg/injection, schedule: Q04DX003 (ip), vehicle: Klucel (hydroxypropylcellulose) (HPC)
[11] = dose: 400.0 mg/kg/injection, schedule: Q04DX003 (ip), vehicle: Klucel (hydroxypropylcellulose) (HPC)
[12] = dose: 25.0 mg/kg/injection, schedule: Q01DX009 (ip), vehicle: saline
[13] = dose: 100.0 mg/kg/injection, schedule: Q01DX009 (ip), vehicle: Klucel (hydroxypropylcellulose) (HPC)
[14] = dose: 200.0 mg/kg/injection, schedule: Q01DX009 (ip), vehicle: Klucel (hydroxypropylcellulose) (HPC)
[15] = dose: 400.0 mg/kg/injection, schedule: Q01DX009 (ip), vehicle: Klucel (hydroxypropylcellulose) (HPC)
[16] = dose: 100.0 mg/kg/injection, schedule: Q01DX009 (ip), vehicle: saline with Tween-80
[17] = dose: 100.0 mg/kg/injection, schedule: Q04DX003 (ip), vehicle: saline with Tween-80
[18] = dose: 200.0 mg/kg/injection, schedule: Q01DX009 (ip), vehicle: saline with Tween-80
[19] = dose: 200.0 mg/kg/injection, schedule: Q04DX003 (ip), vehicle: saline with Tween-80
[20] = dose: 400.0 mg/kg/injection, schedule: Q04DX003 (ip), vehicle: saline with Tween-80

Measured: T/C

CCOP(=S)(N1CCNCC1)N1CCNCC1
inactive: dose: 75.0 mg/kg/injection, schedule: Q01DX001 (ip), vehicle: saline 90 % of control | dose: 75.0 mg/kg/injection, schedule: Q01DX009 (ip), vehicle: Klucel (hydroxypropylcellulose) (HPC) 95 % of control | dose: 150.0 mg/kg/injection, schedule: Q01DX001 (ip), vehicle: saline 92 % of control | dose: 150.0 mg/kg/injection, schedule: Q01DX009 (ip), vehicle: Klucel (hydroxypropylcellulose) (HPC) 120 % of control | dose: 300.0 mg/kg/injection, schedule: Q01DX001 (ip), vehicle: saline 100 % of control

O=C(CCNc1ccccc1)c1ccccc1
inactive: [1] 95 % of control | [2] 95 % of control | dose: 100.0 mg/kg/injection, schedule: Q04DX002 (ip), vehicle: saline 105 % of control | dose: 200.0 mg/kg/injection, schedule: Q04DX002 (ip), vehicle: saline 108 % of control

CCOSc1ccc([N+](=O)[O-])cc1[N+](=O)[O-]
inactive: dose: 50.0 mg/kg/injection, schedule: Q01DX001 (ip), vehicle: saline 90 % of control | [3] 93 % of control | [4] 90 % of control | [5] 95 % of control

CN(C)CCC(O)c1ccc(Cl)cc1 (stereo unspecified)
inactive: [6] 102 % of control | [7] 98 % of control

O=C(Nc1ccc(S(=O)(=O)NC2CCCCC2)cc1)OC1CCCCCC1
inactive: [3] 94 % of control | [4] 94 % of control | [5] 88 % of control

O=C(NC(Cc1ccccc1)C(=O)CCl)OCc1ccccc1 (stereo unspecified)
inactive: dose: 25.0 mg/kg/injection, schedule: Q01DX009 (ip), vehicle: saline with Tween-80 115 % of control | dose: 25.0 mg/kg/injection, schedule: Q04DX002 (ip), vehicle: other 107 % of control | [8] 95 % of control | dose: 50.0 mg/kg/injection, schedule: Q04DX002 (ip), vehicle: other 93 % of control | dose: 100.0 mg/kg/injection, schedule: Q04DX002 (ip), vehicle: other 104 % of control | dose: 100.0 mg/kg/injection, schedule: Q04DX003 (ip), vehicle: saline sonified 108 % of control

OCCc1c[nH]c2ccccc12
inactive: [9] 97 % of control | [10] 94 % of control | [11] 97 % of control

CN(CC(C)(C)C=O)C(=O)c1ccccc1
inactive: [6] 96 % of control | [7] 103 % of control | dose: 400.0 mg/kg/injection, schedule: Q04DX003 (ip), vehicle: saline 100 % of control

c1ccc(C2CN3CCSC3=N2)cc1 (stereo unspecified)
inactive: dose: 0.78 mg/kg/injection, schedule: Q04DX003 (ip), vehicle: saline 102 % of control | dose: 1.56 mg/kg/injection, schedule: Q01DX009 (ip), vehicle: saline 97 % of control | dose: 1.56 mg/kg/injection, schedule: Q04DX003 (ip), vehicle: saline 100 % of control | dose: 3.12 mg/kg/injection, schedule: Q01DX009 (ip), vehicle: saline 100 % of control | dose: 3.12 mg/kg/injection, schedule: Q04DX003 (ip), vehicle: saline 98 % of control | dose: 6.25 mg/kg/injection, schedule: Q01DX009 (ip), vehicle: saline 102 % of control | dose: 6.25 mg/kg/injection, schedule: Q04DX003 (ip), vehicle: saline 104 % of control | dose: 12.5 mg/kg/injection, schedule: Q01DX009 (ip), vehicle: saline 94 % of control | dose: 12.5 mg/kg/injection, schedule: Q04DX003 (ip), vehicle: saline 107 % of control | [12] 105 % of control | dose: 25.0 mg/kg/injection, schedule: Q04DX003 (ip), vehicle: saline 114 % of control

CC1([N+](=O)[O-])COP(=O)(Nc2ccccc2F)OC1 (stereo unspecified)
inactive: dose: 100.0 mg/kg/injection, schedule: Q01DX001 (ip), vehicle: carboxymethylcellulose (CMC) 101 % of control | dose: 200.0 mg/kg/injection, schedule: Q01DX001 (ip), vehicle: carboxymethylcellulose (CMC) 95 % of control | dose: 400.0 mg/kg/injection, schedule: Q01DX001 (ip), vehicle: carboxymethylcellulose (CMC) 104 % of control

COc1ccccc1C(=O)N/N=C/c1ccccc1Cl
inactive: dose: 25.0 mg/kg/injection, schedule: Q01DX009 (ip), vehicle: Klucel (hydroxypropylcellulose) (HPC) 96 % of control | dose: 50.0 mg/kg/injection, schedule: Q01DX009 (ip), vehicle: Klucel (hydroxypropylcellulose) (HPC) 96 % of control | [13] 104 % of control and 105 % of control | [9] 108 % of control | [14] 108 % of control | [10] 111 % of control | [15] 103 % of control | [11] 108 % of control

Cc1ccc(C(=O)NCCCOc2ccc(N)cc2Cl)cc1S(=O)(=O)F
inactive: [8] 104 % of control | [16] 95 % of control | [17] 103 % of control | [18] 90 % of control | [19] 94 % of control | [20] 105 % of control

CNC(=O)Oc1cccc2c1OC(C)(C)C2
inactive: dose: 1.56 mg/kg/injection, schedule: Q01DX001 (ip), vehicle: Klucel (hydroxypropylcellulose) (HPC) 96 % of control | dose: 3.13 mg/kg/injection, schedule: Q01DX001 (ip), vehicle: Klucel (hydroxypropylcellulose) (HPC) 103 % of control

Cc1nc2ccc(-c3ccccc3)cc2s1
inactive: dose: 100.0 mg/kg/injection, schedule: Q01DX001 (ip), vehicle: saline with Tween-80 111 % of control | dose: 200.0 mg/kg/injection, schedule: Q01DX001 (ip), vehicle: saline with Tween-80 108 % of control | dose: 400.0 mg/kg/injection, schedule: Q01DX001 (ip), vehicle: saline with Tween-80 103 % of control

CC(C)CNC(=S)Nc1ccccc1
inactive: dose: 75.0 mg/kg/injection, schedule: Q01DX001 (ip), vehicle: other 98 % of control | dose: 150.0 mg/kg/injection, schedule: Q01DX001 (ip), vehicle: other 98 % of control | dose: 300.0 mg/kg/injection, schedule: Q01DX001 (ip), vehicle: other 102 % of control

C#CC[N+](CC#C)(CC#C)CC#C
inactive: [12] 96 % of control | [1] 102 % of control | [2] 104 % of control

COC(=O)NS(=O)(=O)C=C(c1ccccc1)c1ccccc1
inactive: [13] 106 % of control | [9] 96 % of control | [14] 106 % of control | [10] 108 % of control | [11] 86 % of control

Clc1ccccc1C(c1cccc2ccccc12)n1ccnc1 (stereo unspecified)
inactive: dose: 25.0 mg/kg/injection, schedule: Q04DX002 (ip), vehicle: Klucel (hydroxypropylcellulose) (HPC) 92 % of control | dose: 50.0 mg/kg/injection, schedule: Q04DX002 (ip), vehicle: Klucel (hydroxypropylcellulose) (HPC) 100 % of control | dose: 100.0 mg/kg/injection, schedule: Q04DX002 (ip), vehicle: Klucel (hydroxypropylcellulose) (HPC) 100 % of control | [14] 93 % of control | [15] 86 % of control

Nc1[nH]nc2nccnc12
inactive: [16] 103 % of control | [17] 96 % of control | [18] 98 % of control | [19] 97 % of control | dose: 400.0 mg/kg/injection, schedule: Q01DX009 (ip), vehicle: saline with Tween-80 95 % of control | [20] 102 % of control

O=C1C=CC(=O)N1c1ccc2c(c1)oc(=O)c1ccccc12
inactive: dose: 37.5 mg/kg/injection, schedule: Q01DX009 (ip), vehicle: saline with Tween-80 92 % of control | dose: 50.0 mg/kg/injection, schedule: Q04DX003 (ip), vehicle: saline 96 % of control | [3] 97 % of control | [6] 96 % of control | [4] 92 % of control | [7] 97 % of control
